Experiments:
hOx1R [1] = molecular target: T1, hOx1R (Homo sapiens (Human), UniProt O43613); assay: Radioligand binding assay, [3H]-SB649868, hOx1R; settings: radioligand [3H]-SB649868, competition
Protocol: (§1) For crude cell membrane preparations, cells (CHO, Chinese hamster ovary or HEK, human embryonic kidney) expressing human orexin 1 or human orexin 2 receptors, were washed with HEPES (10 mM, pH 7.5), scraped off the culture plates with the same buffer, and centrifuged at 4° C. for 5 min at 2500×g. The cell pellet was either stored at −80° C. or used directly. Before the experiments, cell membranes were re-suspended in binding assay buffer (10 mM HEPES, 0.5% (w/v) bovine serum albumin, pH 7.5) by homogenisation with a Polytron homogeniser at 50 Hz for 20 s. Cell membranes were also used as made available by commercial providers.
(§2) Bound radioactivity was measured, and data were analysed with the program XLFIT or Graphpad Prism. Protein concentration was determined according to the Bradford/BioRad Protein Assay Kit.
(§3) In competition experiments, cell homogenates (150 μl) were incubated in assay buffer (10 mM HEPES, pH 7.5, 0.5% (w/v) bovine serum albumin, 5 mM MgCl2, 1 mM CaCl2, and tween 0.05%) for 1 h at room temperature with about 1 nM of the radioligand [^3H]-SB649868, 66 Ci/mmole, 50 μl), and with various concentrations of compounds of the invention (50 μl) in triplicates; non-specific binding was determined in the presence of almorexant (10 μM).

hOx2R [2] = molecular target: T2, hOx2R (Homo sapiens (Human), UniProt O43614); assay: Calcium accumulation in cells (FLIPR), hOx2R; type: cell-based; settings: inhibition of orexin A induced calcium accumulation, Cheng and Prusoff correction
T2 sequence (O43614 whole entry): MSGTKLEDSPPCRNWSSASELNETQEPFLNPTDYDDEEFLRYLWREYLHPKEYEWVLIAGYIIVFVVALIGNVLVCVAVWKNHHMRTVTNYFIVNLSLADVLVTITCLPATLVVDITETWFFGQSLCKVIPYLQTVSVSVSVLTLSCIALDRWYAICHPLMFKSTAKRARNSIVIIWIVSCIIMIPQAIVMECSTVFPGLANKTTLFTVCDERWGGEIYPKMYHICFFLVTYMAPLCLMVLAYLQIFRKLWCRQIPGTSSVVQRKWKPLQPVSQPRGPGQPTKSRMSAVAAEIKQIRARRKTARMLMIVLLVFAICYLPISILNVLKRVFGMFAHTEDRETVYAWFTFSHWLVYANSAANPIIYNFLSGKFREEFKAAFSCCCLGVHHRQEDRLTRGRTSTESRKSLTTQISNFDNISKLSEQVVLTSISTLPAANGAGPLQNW
Summary of the method: (§4)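 Cells expressing human orexin 1 or 2 receptor, serum-deprived overnight, loaded with Fluo-4-AM (2 μM) plus 0.1 mM probenecid, pH 7.4 HEPES buffer with 1% BSA.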

hOx1R [3] = molecular target: T1, hOx1R; assay: Calcium accumulation in cells (FLIPR), hOx1R; type: cell-based; settings: for Ki: inhibition of orexin A induced calcium accumulation, Cheng and Prusoff correction
Summary of the method: as §4

hOx2R [4] = molecular target: T2, hOx2R; assay: Radioligand binding assay, [3H]-SB649868, hOx2R; settings: radioligand [3H]-SB649868, competition
Protocol: as §1, §2, §3

T1 sequence (O43613 whole entry): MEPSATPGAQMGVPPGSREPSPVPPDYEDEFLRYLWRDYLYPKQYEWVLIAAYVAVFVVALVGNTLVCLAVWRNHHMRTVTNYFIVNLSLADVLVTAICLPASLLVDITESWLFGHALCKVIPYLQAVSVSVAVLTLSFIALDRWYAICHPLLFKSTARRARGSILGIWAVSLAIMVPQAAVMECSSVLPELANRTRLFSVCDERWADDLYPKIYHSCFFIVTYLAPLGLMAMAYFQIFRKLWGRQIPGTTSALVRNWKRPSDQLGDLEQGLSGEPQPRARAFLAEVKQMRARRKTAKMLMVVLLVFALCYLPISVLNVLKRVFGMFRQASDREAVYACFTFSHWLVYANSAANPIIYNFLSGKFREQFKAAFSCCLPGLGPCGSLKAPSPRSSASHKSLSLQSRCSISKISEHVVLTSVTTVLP

Row | Compound | Kd (hOx1R [1]) [nM] | Ki (hOx2R [2]) [nM] | Ki (hOx1R [3]) [nM] | Kd (hOx2R [4]) [nM] | inhibition at 10 µM (hOx1R [3]; measured at a concentration of 10 μM of compound) [%]
1 | O=C1N(Cc2cccc(-c3cnccn3)c2)CCCC12CCN(c1cnc3ccccc3n1)CC2 [Example 65, 2-(3-(pyrazin-2-yl)benzyl)-9-(quinoxalin-2-yl)-2,9-diazaspiro[5.5]undecan-1-one] | 1860 | 23 | 357 | 623 | –
2 | Cc1nc(CN2CCCC3(CCN(c4cnc5ccccc5n4)CC3)C2=O)c(-c2cccc(F)c2)s1 [Example 73, 2-((5-(3-fluorophenyl)-2-methylthiazol-4-yl)methyl)-9-(quinoxalin-2-yl)-2,9-diazaspiro[5.5]undecan-1-one] | 1150 | 55 | 438 | 219 | –
3 | O=C1N(Cc2cccc3nonc23)CCCC12CCN(c1cnc3ccccc3n1)CC2 [Example 77, 2-(benzo[c][1,2,5]oxadiazol-4-ylmethyl)-9-(quinoxalin-2-yl)-2,9-diazaspiro[5.5]undecan-1-one] | 2330 | 98 | 1150 | 1460 | –
4 | O=C1N(Cc2cccc3c2OCCO3)CCCC12CCN(c1nccc3occc13)CC2 [Example 82, 2-((2,3-dihydrobenzo[b][1,4]dioxin-5-yl)methyl)-9-(furo[3,2-c]pyridin-4-yl)-2,9-diazaspiro[5.5]undecan-1-one] | 5090 | 81 | – | 624 | 33
5 | O=C1N(Cc2cccc(-n3cccn3)n2)CCCC12CCN(c1cnc3ccccc3n1)CC2 [Example 83, 2-((6-(1H-pyrazol-1-yl)pyridin-2-yl)methyl)-9-(quinoxalin-2-yl)-2,9-diazaspiro[5.5]undecan-1-one] | 2760 | 80 | 1730 | 364 | –
6 | O=C1N(Cc2ncoc2-c2ccccc2)CCCC12CCN(c1cnc3ccccc3n1)CC2 [Example 95, 2-((5-phenyloxazol-4-yl)methyl)-9-(quinoxalin-2-yl)-2,9-diazaspiro[5.5]undecan-1-one] | 429 | 8 | 223 | 36 | –
7 | Cc1nc(-c2cccc(CN3CCCC4(CCN(c5cnc6ccccc6n5)CC4)C3=O)c2)no1 [Example 98, 2-(3-(5-methyl-1,2,4-oxadiazol-3-yl)benzyl)-9-(quinoxalin-2-yl)-2,9-diazaspiro[5.5]undecan-1-one] | 980 | 50 | 425 | 223 | –
8 | COc1cccc(-n2cncc2CN2CCCC3(CCN(c4cnc5ccccc5n4)CC3)C2=O)c1 [Example 111, 2-((1-(3-methoxyphenyl)-1H-imidazol-5-yl)methyl)-9-(quinoxalin-2-yl)-2,9-diazaspiro[5.5]undecan-1-one] | 3820 | 85 | 1290 | 559 | –
9 | O=C1N(Cc2cccc3nsnc23)CCCC12CCN(c1cnc3ccccc3n1)CC2 [Example 113, 2-(benzo[c][1,2,5]thiadiazol-4-ylmethyl)-9-(quinoxalin-2-yl)-2,9-diazaspiro[5.5]undecan-1-one] | 3500 | 82 | 1360 | 630 | –
10 | Cc1ccc(-n2nccn2)c(CN2CCCC3(CCN(c4cnc5ccccc5n4)CC3)C2=O)c1 [Example 125, 2-(5-methyl-2-(2H-1,2,3-triazol-2-yl)benzyl)-9-(quinoxalin-2-yl)-2,9-diazaspiro[5.5]undecan-1-one] | 4990 | 137 | 2290 | 324 | –
11 | Cc1ccc(-n2nccn2)cc1CN1CCCC2(CCN(c3cnc4ccccc4n3)CC2)C1=O [Example 128, 2-(2-methyl-5-(2H-1,2,3-triazol-2-yl)benzyl)-9-(quinoxalin-2-yl)-2,9-diazaspiro[5.5]undecan-1-one] | > 10000 | 73 | 967 | 160 | –
12 | O=C1N(Cc2n[nH]c3ccccc23)CCCC12CCN(c1cnc3ccccc3n1)CC2 [Example 129, 2-((1H-indazol-3-yl)methyl)-9-(quinoxalin-2-yl)-2,9-diazaspiro[5.5]undecan-1-one] | 105 | 9 | 126 | 25 | –
13 | Cn1cc(CN2CCCC3(CCN(c4cnc5ccccc5n4)CC3)C2=O)c2ccccc21 [Example 130, 2-((1-methyl-1H-indol-3-yl)methyl)-9-(quinoxalin-2-yl)-2,9-diazaspiro[5.5]undecan-1-one] | 1280 | 29 | 422 | 134 | –
14 | Cc1ccc2oc(N3CCC4(CCCC(=O)N4Cc4cccc5[nH]ccc45)CC3)nc2c1 [Example 140, 1-((1H-indol-4-yl)methyl)-9-(5-methylbenzo[d]oxazol-2-yl)-1,9-diazaspiro[5.5]undecan-2-one] | 1580 | 81 | 662 | 379 | –
15 | Cn1cc(CN2C(=O)CCCC23CCN(c2cnc4ccccc4n2)CC3)c2cccnc21 [Example 143, 1-((1-methyl-1H-pyrrolo[2,3-b]pyridin-3-yl)methyl)-9-(quinoxalin-2-yl)-1,9-diazaspiro[5.5]undecan-2-one] | 307 | 39 | 747 | 50 | –
16 | Cc1cnc(-c2cccc(CN3CCCC4(CCN(c5cnc6ccccc6n5)CC4)C3=O)c2)o1 [Example 147, 2-(3-(5-methyloxazol-2-yl)benzyl)-9-(quinoxalin-2-yl)-2,9-diazaspiro[5.5]undecan-1-one] | 228 | 7 | 94 | 63 | –
17 | O=C1N(Cc2ccccc2-c2ncco2)CCCC12CCN(c1cnc3ccccc3n1)CC2 [Example 149, 2-(2-(oxazol-2-yl)benzyl)-9-(quinoxalin-2-yl)-2,9-diazaspiro[5.5]undecan-1-one] | 3450 | 19 | 981 | 268 | –
18 | O=C1N(Cc2ccccc2-c2ccco2)CCCC12CCN(c1cnc3ccccc3n1)CC2 [Example 150, 2-(2-(furan-2-yl)benzyl)-9-(quinoxalin-2-yl)-2,9-diazaspiro[5.5]undecan-1-one] | 2100 | 45 | 744 | 185 | –
19 | O=C1N(Cc2c[nH]c3ccccc23)CCCC12CCN(c1nc3ccccc3[nH]1)CC2 [Example 152, 2-((1H-indol-3-yl)methyl)-9-(1H-benzo[d]imidazol-2-yl)-2,9-diazaspiro[5.5]undecan-1-one] | 939 | 69 | 1560 | 84 | –
20 | O=C1N(Cc2c[nH]c3ccccc23)CCCC12CCN(c1nccc3occc13)CC2 [Example 156, 2-((1H-indol-3-yl)methyl)-9-(furo[3,2-c]pyridin-4-yl)-2,9-diazaspiro[5.5]undecan-1-one] | 1020 | 23 | 623 | 139 | –
21 | O=C1N(Cc2c[nH]c3ccccc23)CCCC12CCN(c1ccc3ccccc3n1)CC2 [Example 160, 2-((1H-indol-3-yl)methyl)-9-(quinolin-2-yl)-2,9-diazaspiro[5.5]undecan-1-one] | 806 | 68 | 571 | 111 | –
22 | Cc1cc(N2CCC3(CCCN(Cc4c[nH]c5ccccc45)C3=O)CC2)nc2ccccc12 [Example 164, 2-((1H-indol-3-yl)methyl)-9-(4-methylquinolin-2-yl)-2,9-diazaspiro[5.5]undecan-1-one] | 90 | 14 | 115 | 12 | –
23 | O=C1N(Cc2c[nH]c3ccccc23)CCCC12CCN(c1cc3nccnc3cn1)CC2 [Example 167, 2-((1H-indol-3-yl)methyl)-9-(pyrido[4,3-b]pyrazin-7-yl)-2,9-diazaspiro[5.5]undecan-1-one] | 1670 | 81 | 665 | 152 | –
24 | O=C1N(Cc2c[nH]c3ccccc23)CCCC12CCN(c1ncc3ccccc3n1)CC2 [Example 169, 2-((1H-indol-3-yl)methyl)-9-(quinazolin-2-yl)-2,9-diazaspiro[5.5]undecan-1-one] | 926 | 70 | 966 | 123 | –

— patent publication US8530648B2, “Diaza-spiro[5.5]undecanes” (Novartis AG, priority 2009, dated 2013)
